Reference: PMC12154458, “High-Throughput Screens of Repurposing Hub and DOS Chemical Libraries Reveal Compounds with Novel and Potent Inhibitory Activity Against the Essential Non-Neuronal Acetylcholinesterase of Schistosoma mansoni (SmTAChE)” (International Journal of Molecular Sciences, 2025)

What was measured:
rSmTAChE [1] = molecular target: T1, rSmTAChE (Schistosoma mansoni, UniProt A0A3Q0KMM5); experiment: biochemical
rSmTAChE [2] = molecular target: T1, rSmTAChE; assay type: biochemical
[3] = molecular target: recombinant human acetylcholinesterase, rHsAChE (Homo sapiens, UniProt P22303); experiment: biochemical
[4] = system: newly transformed S. mansoni schistosomula; details: survival over 3 days; read-out: IC50 against schistosomula; cited from earlier work
[5] = system: S. mansoni adult male and female worms; details: survival over 3 days; read-out: IC50 against adults; cited from earlier work
S. mansoni worms in vivo = details: one time 200 mg/kg by oral gavage, four mice, 16–18 days post-drug administration; cited from earlier work
[6] = system: human red blood cell AChE; details: cited from earlier work
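Wherever Inhibition (%) (Average) is given: mostly 20 µM final but a few compounds at 5 or 10 µM.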
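Wherever Inhibition (%) Replicate A is given: mostly 20 µM final but a few compounds at 5 or 10 µM.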
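Wherever Inhibition (%) Replicate B is given: mostly 20 µM final but a few compounds at 5 or 10 µM.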

recombinant human acetylcholinesterase, rHsAChE, sequence (P22303 32-614): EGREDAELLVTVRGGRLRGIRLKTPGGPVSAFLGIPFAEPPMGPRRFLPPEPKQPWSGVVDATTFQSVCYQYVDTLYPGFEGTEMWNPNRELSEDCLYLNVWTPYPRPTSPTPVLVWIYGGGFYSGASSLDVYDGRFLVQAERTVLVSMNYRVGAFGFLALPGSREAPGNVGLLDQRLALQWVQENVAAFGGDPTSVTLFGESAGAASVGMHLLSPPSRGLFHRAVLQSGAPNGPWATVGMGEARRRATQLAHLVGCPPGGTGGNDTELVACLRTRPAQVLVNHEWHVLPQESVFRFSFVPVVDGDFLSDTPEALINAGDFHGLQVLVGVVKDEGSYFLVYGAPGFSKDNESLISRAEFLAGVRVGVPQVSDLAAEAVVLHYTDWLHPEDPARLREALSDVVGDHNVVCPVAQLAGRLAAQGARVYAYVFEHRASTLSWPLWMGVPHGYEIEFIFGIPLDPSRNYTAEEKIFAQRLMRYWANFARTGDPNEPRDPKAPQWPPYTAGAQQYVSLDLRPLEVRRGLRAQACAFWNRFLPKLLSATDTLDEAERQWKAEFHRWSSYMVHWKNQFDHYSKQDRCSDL
T1 sequence (A0A3Q0KMM5 27-661 limits assumed): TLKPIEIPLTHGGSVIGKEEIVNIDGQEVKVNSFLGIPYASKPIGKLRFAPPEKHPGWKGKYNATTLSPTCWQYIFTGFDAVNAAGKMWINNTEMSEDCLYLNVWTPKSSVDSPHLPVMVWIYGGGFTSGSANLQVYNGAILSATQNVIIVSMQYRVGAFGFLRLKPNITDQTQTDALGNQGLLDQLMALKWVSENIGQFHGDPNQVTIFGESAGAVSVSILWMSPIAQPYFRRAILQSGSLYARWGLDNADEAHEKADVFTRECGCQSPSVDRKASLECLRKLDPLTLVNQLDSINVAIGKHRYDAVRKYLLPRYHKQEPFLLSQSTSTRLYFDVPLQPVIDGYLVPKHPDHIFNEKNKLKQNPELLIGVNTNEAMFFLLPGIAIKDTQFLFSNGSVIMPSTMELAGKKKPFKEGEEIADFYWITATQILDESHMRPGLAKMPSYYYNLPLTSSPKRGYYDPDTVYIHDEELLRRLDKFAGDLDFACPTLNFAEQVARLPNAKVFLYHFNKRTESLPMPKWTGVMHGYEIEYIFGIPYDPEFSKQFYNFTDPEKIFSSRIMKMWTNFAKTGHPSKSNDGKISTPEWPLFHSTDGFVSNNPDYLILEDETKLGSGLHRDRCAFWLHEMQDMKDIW

## Nc1nc(NCC2CCC(CNS(=O)(=O)c3cccc4ccccc34)CC2)nc2ccccc12 (stereo not shown) [CGP-71683, reference compound]
rSmTAChE [1]
  Inhibition (%) (Average): 61.37%
  Inhibition (%) Replicate A: 61.71%
  Inhibition (%) Replicate B: 61.03%
rSmTAChE [1]; 5 µM
  HTS/rSmTAChE Inhibition (Ave, %): 61.37%
rSmTAChE [2]
  Data Mode (curve class), rSmTAChE: decreasing
  SI (Hs/Sm): 8.82
  fold greater potency/selectivity for SmTAChE vs. HsAChE (Selectivity Index): about 10 fold
rSmTAChE [2]; read-out: IC50 (µM) rSmTAChE
  IC50: 2.21 µM
[3]
  Data Mode (curve class), rHsAChE: decreasing (weakly active)
[3]; read-out: IC50 (µM) rHsAChE
  IC50: > 19.5 µM
[4]
  IC50: ~1000 nM
[5]
  IC50: ~2000 nM
S. mansoni worms in vivo
  worm burden compared to the controls: no differences in worm burden

## COc1cc(NC(C)CCCN)c2ncccc2c1 (stereo not shown) [Primaquine phosphate, reference compound]
rSmTAChE [1]; read-out: HTS/rSmTAChE Inhibition (Ave, %)
  inhibition at 20 µM: 73.7%
rSmTAChE [2]
  Data Mode (curve class), rSmTAChE: decreasing
  SI (Hs/Sm): 2.21
[3]
  Data Mode (curve class), rHsAChE: decreasing (weakly active)
[6]
  IC33 human red blood cell AChE: 38 µM
  IC67 human red blood cell AChE: 247 µM
